{"source": "patent US20210170000A1", "about": "“Larval preparation of Heligmosomoides polygyrus bakeri as well as methods of making it and uses thereof” (Helmholtz Zentrum München Deutsches Forschungszentrum für …, priority 2018, published 2021)", "key": {"[1]": {"tested_on": "human MDM", "experiment": "HpbE- or Hpb GDH-treated human MDM with inhibitors or neutralizing antibodies", "format": "cell-based", "source_text": "In order to identify immuneregulatory proteins present in HpbE, the inventors fractionated the extract by size exclusion chromatography and identified active fractions (8-11) based on the capacity to induce the COX metabolite TXB2 as well as IL-10 (FIGS. 4C and 4D). The inventors then identified proteins present in active and non-active fractions by mass spectrometry, thus highlighting Hpb glutamate dehydrogenase (GDH) as a major immuneregulatory candidate, which was uniquely present in active fractions of HpbE (summarized in FIG. 4E). In addition, an inhibitor of GDH (Bithionol), which is also used as an anti-helminthic, reduced the HpbE-triggered induction of PGE2 and IL-10 (FIG. 4F).\nAs a new tool for studying the uptake, localization and function of Hpb GDH in vivo and in target cells in vitro, we generated monoclonal antibodies (mABs) specific for Hpb GDH (i.e. not cross-reactive with mammalian (human/mouse) GDH) (FIG. 5). Clone 4F8 was selected as the best candidate for further sub cloning and for testing in neutralization experiments. […]\nAs HIF-1α is positively regulated by the p38 MAPK, the inventors studied the involvement of p38 signaling in the induction of type 2-suppressive mediators by HpbE. In human MDM, p38 was phosphorylated upon treatment with HpbE, correlating with the induction of COX-2 (FIG. 11A) and a p38 inhibitor (VX-702) abrogated the induction of IL-10, IL-1R and PGE2-synthetic enzymes (PTGS2 and PTGES) (FIG. 11B to D). In line with HIF-1α dependent regulation in murine BMDM, a pharmacological inhibitor of HIF-1α (acriflavine) attenuated the HpbE-induced expression of IL-10, IL-1β and COX pathway enzymes in human MDM (FIG. 11B to D). However, p38 and HIF-1α were not responsible for the modulation of the 5-LOX pathway (FIG. 11D).\n(§1) Monocyte-derived macrophages (MDM) or bone marrow derived macrophages (BMDM) were generated by culture in the presence of human or murine recombinant GM-CSF (10 ng/ml) (Miltenyi Biotech) and human recombinant TGF-β1 (2 ng/ml) (Peprotech) as previously described (Esser-von Bieren et al. (2013), PLoS Pathog., 9:e1003771; Dietz et al. (2016), J. Allergy Clin Immunol, 139(4):1343-1354.e6). On day 6, cells were harvested and used for further experiments.\n(§2) Eicosanoids were quantified by liquid chromatography tandem mass spectrometry (LC-MS/MS) similar to a previously published method (Henkel et al. (2018); Allergy, doi:10.1111/a11.13700). Cytokines were quantified using commercially available multiplex assays or ELISA kits according to the manufacturer's instructions."}, "[2]": {"tested_on": "human granulocytes", "experiment": "Granulocyte chemotaxis (trans-well) towards nasal polyp secretions", "format": "cell-based", "details": "for reduction of granulocyte chemotaxis in response to nasal polyp secretions: cells from AERD patients (n=6) and healthy controls (n=3), fluticasone propionate 1 μM, Montelukast 10 μM", "experimental": "Granulocyte recruitment (induced by chemokines or nasal polyp secretions) was assessed with or without pre-treatment with Hpb proteins by using trans-well assays. Migrated granulocytes were enumerated microscopically and by flow cytometry.\nPMN were resuspended to a concentration of 1×10^6 cells/ml in the presence of 100 ng/ml human GM-CSF (Miltenyi Biotech) and overnight stimulated with 10 μg/ml HpbE. When mentioned, PMN were pre-treated with 1 μM fluticasone propionate (Sigma-Aldrich), 10 μM montelukast (Cayman Chemical) or conditioned media from MDM stimulated overnight with 10 μg/ml Hpb extract+/−100 μM Indomethacin for 1 hour. PMN migration in response to nasal polyp secretions or a chemokine cocktail of 2 ng/ml RANTES, 20 ng/ml IL-8 (Miltenyi Biotech) and 2 ng/ml LTB4 (Cayman Chemical) was tested. Chemoattractants were placed in the lower wells of a chemotaxis plate (3 μm pore size; Corning). After mounting the transwell unit, […] PMN were added to the top of each well and migration was allowed for 3 hours at 37° C., 5% CO2. The number of cells migrating to the lower well was counted microscopically. In some experiments, manual counting was validated by flow cytometry."}, "[3]": {"tested_on": "human monocyte derived macrophages (MDM)", "experiment": "Mediator (eicosanoid, cytokine) production by human monocyte derived macrophages", "format": "cell-based", "experimental": "(§3) Human polymorphonuclear leukocytes (PMN) or peripheral blood mononuclear cells (PBMC) were isolated from the peripheral blood from healthy controls or patients suffering from AERD using density gradient centrifugation. For some experiments, cells were further separated into monocytes (CD14^+), neutrophils (CD16^+) or eosinophils. CD14^+ monocytes were differentiated into macrophages by culture for 6-8 days in the presence of GM-CSF and TGFbl. In most experiments, cells were treated with Hpb proteins at a concentration of 10 μg protein/ml.\n(§4) Mediator analysis in cell supernatants (+/−Hpb proteins) was performed by immunoassay for individual mediators (e.g. LTs, PGE2 or IL-10) or LC-MS/MS or Multiplex cytokine analysis for overall mediator profiles.\nIn order to study the effect of Hpb proteins on human macrophages, human monocyte derived macrophages (MDM) were stimulated with A23187 after 16 hrs. treatment with helminth proteins (e.g., total somatic homogenate of Hpb L3 larvae).\n(§5) Human monocyte derived macrophages (MDM) were isolated, cultured and stimulated as described herein, e.g. in Example 3.\n(§6) Eicosanoids or cytokines were quantified by LC-MS/MS or immunoassays as described herein, e.g. in Example 3.\nas §1, §2"}, "[4]": {"tested_on": "MDM from AERD patients", "experiment": "Eicosanoid production by MDM from AERD patients", "format": "cell-based, human", "source_text": "To validate the efficacy of HpbE in a relevant therapeutic indication, the inventors generated MDM from AERD patients and studied the effects of HpbE and FP on the mediator output.\nas §5, §6"}, "[5]": {"tested_on": "human granulocytes (PMN)", "experiment": "Mediator production by human granulocytes (PMN)", "format": "cell-based", "experimental": "as §3, §4\nHpb proteins (e.g., total somatic homogenate of Hpb L3 larvae) broadly modulate mediator profiles of human myeloid cells.\nas §2"}, "[6]": {"details": "purified recombinant His-tagged protein"}}}
{"compound": "Oc1c(Cl)cc(Cl)cc1Sc1cc(Cl)cc(Cl)c1O", "note": "[Bithionol]", "values": [{"measurement": "HpbE-triggered induction of PGE2 and IL-10", "setting": "[1]; inhibitor of GDH, 20 μM", "result": "reduced"}]}
{"compound": "COc1ccc2c(c1)c(CC(=O)O)c(C)n2C(=O)c1ccc(Cl)cc1", "note": "[indomethacin]", "values": [{"measurement": "HpbE-triggered COX-2 expression", "setting": "[1]; COX inhibitors", "result": "reduced"}, {"measurement": "suppression of the 5-LOX pathway", "setting": "[1]; COX inhibitors", "result": "remained largely unaffected"}, {"measurement": "induction of IL-10, IL-1β and PTGES", "setting": "[1]; COX inhibitors, CAY10404 10 μM", "result": "reduced"}]}
{"compound": "NC(=O)c1ccc(N(C(N)=O)c2c(F)cccc2F)nc1-c1ccc(F)cc1F", "note": "[VX-702]", "values": [{"measurement": "induction of IL-10, IL-1R and PGE2-synthetic enzymes (PTGS2 and PTGES)", "setting": "[1]; p38 inhibitor", "result": "abrogated"}]}
{"compound": "acriflavine", "values": [{"measurement": "HpbE-induced expression of IL-10, IL-1β and COX pathway enzymes", "setting": "[1]; pharmacological inhibitor of HIF-1α", "result": "attenuated"}]}
{"compound": "CS(=O)(=O)c1ccc(-c2noc(C(F)(F)F)c2-c2ccccc2)cc1", "note": "[CAY10404]", "values": [{"measurement": "HpbE-triggered COX-2 expression", "setting": "[1]; COX inhibitors", "result": "reduced"}, {"measurement": "suppression of the 5-LOX pathway", "setting": "[1]; COX inhibitors", "result": "remained largely unaffected"}]}
{"compound": "CC(C)(O)c1ccccc1CC[C@@H](SCC1(CC(=O)O)CC1)c1cccc(/C=C/c2ccc3ccc(Cl)cc3n2)c1", "note": "[Montelukast]", "values": [{"measurement": "reduction of granulocyte chemotaxis in response to nasal polyp secretions", "setting": "[2]", "result": 10, "unit": "%"}]}
{"compound": "CC(C)(C)c1ccc(S(=O)(=O)/C=C/C#N)cc1", "note": "[BAY 11-7085]", "values": [{"measurement": "PGE2, IL-10 and IL-1β production as well as gene expression of PGE2-synthetic enzymes and IL-10", "setting": "[1]; HpbE-treated human MDM, inhibition of NFκβ, 5 μM", "result": "significantly reduced"}]}
{"compound": "Recombinant Hpb GDH: Recombinant His-tagged Hpb glutamate dehydrogenase (UniProtKB A0A183FP08, SEQ ID NO: 1) expressed in E. coli", "values": [{"measurement": "PGE2 and IL-10 production by human macrophages", "setting": "[3]; [6]", "result": "induce"}, {"measurement": "generation of pro-inflammatory cysLTs by human macrophages", "setting": "[3]; [6]", "result": "reduce"}]}
{"compound": "CCC(=O)O[C@]1(C(=O)SCF)[C@H](C)C[C@H]2[C@@H]3C[C@H](F)C4=CC(=O)C=C[C@]4(C)[C@@]3(F)[C@@H](O)C[C@@]21C", "note": "[fluticasone propionate]", "values": [{"measurement": "reduction of granulocyte chemotaxis in response to nasal polyp secretions", "setting": "[2]", "result": "failed to reduce chemotactic responses"}, {"measurement": "cell recruitment: migration of AERD patient granulocytes towards nasal polyp secretions ex vivo", "setting": "[2]; pre-treatment of AERD granulocytes", "result": "not achieved"}, {"measurement": "eicosanoid output of MDM from AERD patients", "setting": "[4]", "result": "no effects"}, {"measurement": "pro-inflammatory arachidonic acid (AA) and linoleic acid (LA) metabolites", "setting": "[5]", "result": "reduce"}, {"measurement": "eicosanoid output in MDM from healthy individuals", "setting": "[3]; weak induction of PGE2", "result": "only minor effects"}]}
